Experimental data: US20030162165A1, “Chemical signal enhancement of dynamic intensity-based intracellular protein-and fluorophore-based redistribution assays for drug-screening” (priority 2003, published 2003)
Entries after “also recorded” stand apart in the source; their conditions may differ.

How the values were obtained:
[1] = cited from earlier work; for Molar Absorptivity 488 nm: at 488 nm; for Molar Absorptivity 488 nm / Molar Absorptivity 500-550 nm: estimated from published spectra; for Molar Absorptivity 500-550 nm: average over 500-550 nm; for Wavelength of maxiumum absorbance: published spectra
[2] = tested on: human isoform of PKC (protein kinase C) beta 1 tagged with GFP; test: Type 1 redistribution assay (PKC beta 1-GFP, ATP stimulus) on FLIPR; format: cell-based; conditions: for increase in the measurable response, type 1 redistribution: summary, enhancer added to extracellular medium, FLIPR
Protocol: (§1) The CHO (Chinese hamster ovary) cell line stably expressing the human isoform of PKC (protein kinase C) beta 1 tagged with GFP (green fluorescent protein)in its C-terminal end and the human RACK1 (receptor for activated C kinase) was cultured in 96-well microtiter plates (Packard View-Plate). After 20 min preincubation in KRW (experimental buffer; A modified Krebs-Ringer buffer containing (in mM): NaCl 140, KCl 3.6, NaH2PO4 0.5, MgSO4 0.5, NaHCO3 2.0, CaCl2 1.5 and HEPES 10, D-glucose 5 (pH 7.4, titrated with 1M NaOH)) the cell plate was supplemented with a concentration gradient of Trypan Blue at 0, 10, 50, 100 and 200 μM (4 wells per compound and concentration) and placed in the FLIPR™. Subsequently the cells were stimulated in the FLIPR™ with 100 μM ATP. This gives a Type 1 redistribution response (see FIG. 6) in these cells where the redistribution can be quantified as a reduction in fluorescence intensity, as PKC beta 1 moves from the cytosol to the membrane, during the first 1-2 minutes of stimulation. […] All data were corrected for background by subtraction of a background trace based on 16 individual background traces and normalized to 1 at the point of addition of 100 μM ATP.
as §1, with “Acid Red 88” for “Trypan Blue”
The CHO (Chinese hamster ovary) cell line stably expressing the human isoform of PKC (protein kinase C) beta 1 tagged with GFP (green fluorescent protein) in its C-terminal end and the human RACK1 (receptor for activated C kinase) was cultured in 96-well microtiter plates (Packard View-Plate). After 20 min preincubation in KRW (experimental buffer; A modified Krebs-Ringer buffer containing (in mM): NaCl 140, KCl 3.6, NaH2PO4 0.5, MgSO4 0.5, NaHCO3 2.0, CaCl2 1.5 and HEPES 10, D-glucose 5 (pH 7.4, titrated with 1M NaOH)) the cell plate was supplemented with a concentration gradient of Trypan Blue, Acid Red 88 and Orange G at 0, 10, 50, 100 and 200 μM (4 wells per compound and concentration) and placed in the FLIPR™. Subsequently the cells were stimulated in the FLIPR™ with 100 μM ATP. This gives a Type 1 redistribution response (see FIG. 6) in these cells where the redistribution can be quantified as a reduction in fluorescence intensity, as PKC beta 1 moves from the cytosol to the membrane, during the first 1-2 minutes of stimulation. All data were corrected for background by subtraction of a background trace based on 16 individual background traces and normalized to 1 at the point of addition of 100 μM ATP. The data points represent the average of four determinations+SD. […]

Solubility in water = format: physicochemical
[3] = tested on: PH-domain (pleckstrin homology) of the human isoform of PLC (phospho-lipase C) delta tagged with GFP; test: Type 3 redistribution assay (PLC delta PH-domain-GFP, ATP stimulus) on FLIPR; format: cell-based; conditions: for increase in the measurable response, type 3 redistribution: summary, enhancer added to extracellular medium, FLIPR
Protocol: The CHO (Chinese hamster ovary) cell line stably expressing the PH-domain (pleckstrin homology) of the human isoform of PLC (phospho-lipase C) delta tagged with GFP (green fluorescent protein) in its C-terminal end was cultured in 96-well microtiter plates (Packard View-Plate). After 20 min preincubation in KRW (experimental buffer; A modified Krebs-Ringer buffer containing (in mM): NaCl 140, KCl 3.6, NaH2PO4 0.5, MgSO4 0.5, NaHCO3 2.0, CaCl2 1.5 and HEPES 10, D-glucose 5 (pH 7.4, titrated with 1M NaOH)) the cell plate was supplemented with 100 μM Trypan Blue in one half and 10 μM Acid Red 88 in the other half of the wells and placed in the FLIPR™. Subsequently the cells were stimulated in the FLIPR™ with a range of ATP concentrations starting with 300 μM and lower by a threefold reduction of concentration in each dilution step. This gives a Type 3 redistribution response (see FIG. 6) in these cells where the redistribution can be quantified as an increase in fluorescence intensity, as the PH-domain of PLC delta 1 moves from the membrane to the cytosol, during the first 1-2 minutes of stimulation. FIG. 4 summarizes this experiment. All data were corrected for background by subtraction of a background trace based on 4 individual background traces. The data points represent the average of four determinations+SD. The data were extracted as the maximal change during the first minute of stimulation (Smax-Smin).
The CHO (Chinese hamster ovary) cell line stably expressing the PH-domain (pleckstrin homology) of the human isoform of PLC (phospho-lipase C) delta tagged with GFP (green fluorescent protein) in its C-terminal end was cultured in 96-well microtiter plates (Packard View-Plate). After 20 min preincubation in KRW (experimental buffer; A modified Krebs-Ringer buffer containing (in mM): NaCl 140, KCl 3.6, NaH2PO4 0.5, MgSO4 0.5, NaHCO3 2.0, CaCl2 1.5 and HEPES 10, D-glucose 5 (pH 7.4, titrated with 1M NaOH)) the cell plate was supplemented with 100 μM Trypan Blue in one half and 20 μM Acid Red 88 in the other half of the wells and placed in the FLIPR. Subsequently the cells were stimulated in the FLIPR with 100 μM ATP. This gives a Type 3 redistribution response (see FIG. 6) in these cells where the redistribution can be quantified as an increase in fluorescence intensity, as the PH-domain of PLC delta 1 moves from the membrane to the cytosol, during the first 1-2 minutes of stimulation. FIG. 4 summarizes this experiment. It can be seen that Acid Red 88 in this case maximally gives about a 6-7-fold increase in signal over the one obtained with Trypan Blue.

[4] = tested on: mouse cPKA (catalytic subunit of protein kinase A) tagged with GFP; test: Type 2 redistribution assay (cPKA-GFP, Forskolin stimulus) on FLIPR; format: cell-based; conditions: for effect on type 2 redistribution response: CHO cells, concentration gradient of dye
Protocol: The CHO (Chinese hamster ovary) cell line stably expressing the mouse cPKA (catalytic subunit of protein kinase A) tagged with GFP (green fluorescent protein) in its N-terminal end was cultured in 96-well microtiter plates (Packard View-Plate). After 20 min preincubation in KRW (experimental buffer; A modified Krebs-Ringer buffer containing (in mM): NaCl 140, KCl 3.6, NaH2PO4 0.5, MgSO4 0.5, NaHCO3 2.0, CaCl2 1.5 and HEPES 10, D-glucose 5 (pH 7.4, titrated with 1M NaOH)) the cell plate was supplemented with a concentration gradient of Trypan Blue and Acid Red 88 (4 wells per compound and concentration) and placed in the FLIPR™. Subsequently the cells were stimulated in the FLIPR™ with 10 μM Forskolin. This gives a Type 2 redistribution response (see FIG. 6) in these cells where the redistribution can be quantified as an increase in fluorescence intensity, as cPKA moves from aggregates in the cytosol to a dispersed form in the cytosol, during the first 2-5 minutes of stimulation. All data were corrected for background by subtraction of a background trace based on 16 individual background traces and normalized to 1 at the point of addition of 10 μM Forskolin. The data points represent the average of four determinations+SD. The data were extracted as the maximal change in fluorescence during the first five minutes of stimulation. Negative values depict a decrease In fluorescence during the response and positive values and Increase.
The CHO (Chinese hamster ovary) cell line stably expressing the mouse cPKA (catalytic subunit of protein kinase A) tagged with GFP (green fluorescent protein) in its N-terminal end was cultured in 96-well microtiter plates (Packard View-Plate). After 20 min preincubation in KRW (experimental buffer; A modified Krebs-Ringer buffer containing (in mM): NaCl 140, KCl 3.6, NaH2PO4 0.5, MgSO4 0.5, NaHCO3 2.0, CaCl2 1.5 and HEPES 10, D-glucose 5 (pH 7.4, titrated with 1M NaOH)) the cell plate was supplemented with a concentration gradient of Trypan Blue and Acid Red 88 at 0, 10, 50, 100 and 200 μM during the experimental fluorescence recording (4 wells per compound and concentration) in the FLIPR™. […] The data were extracted as the absolute fluorescence change 30 seconds after addition of the two compounds.
The CHO (Chinese hamster ovary) cell line stably expressing the mouse cPKA (catalytic subunit of protein kinase A) tagged with GFP (green fluorescent protein) in its N-terminal end was cultured in 96-well microtiter plates (Packard View-Plate). […] This gives a Type 2 redistribution response (see FIG. 6) in these cells where the redistribution can be quantified as an increase in fluorescence intensity, as cPKA moves from aggregates in the cytosol to a dispersed form in the cytosol, during the first 2-5 minutes of stimulation.

Structure (SMILES) | Molar Absorptivity 488 nm [1] [mol^−1-cm^−1] | Molar Absorptivity 500-550 nm [1] [mol^−1-cm^−1] | Wavelength of maxiumum absorbance [1] [nm] | enhancing effect on type 1 redistribution response ([2]; CHO cells, 100 μM ATP, 0-200 μM dye) | solubility (Solubility in water) [µg/mL] | effect on type 3 redistribution response ([3]; 100 μM Trypan Blue, response barely detectable without the compound) | increase in the measurable response, type 3 redistribution [3] | effect on type 2 redistribution response ([4]; 10 μM Forskolin) | maximal enhancement of the response compared to the control ([2]; at 200 μM enhancer, CHO cells, 100 μM ATP) | increase in the measurable response, type 1 redistribution [2] | increase in signal over the one obtained with Trypan Blue, type 3 redistribution ([3]; maximal, 20 μM Acid Red 88 vs 100 μM Trypan Blue, CHO cells, ATP) | effect on overall basal fluorescence, type 2 redistribution assay ([4]; 0-200 μM, no stimulus (FIG. 10)) | effect on type 2 redistribution response at higher concentrations ([4]; above 10 μM, 10 μM Forskolin) | maximal enhancement of the response compared to the control ([2]; at 50 μM enhancer, CHO cells, 100 μM ATP) | effect on overall basal fluorescence, type 1 redistribution assay ([2]; concentration dependent, 0-200 μM, no stimulus (FIG. 7))
O=S(=O)(O)c1cc(S(=O)(=O)O)c2c(/N=N/c3ccccc3)c(O)ccc2c1 [Orange G] | 13571 | 4524 | 475 | enhancing properties up to a concentration of 100 μM; also recorded: inferior to Trypan Blue and much inferior to Acid Red 88 |  |  |  |  |  |  |  |  |  |  | 
Cc1cc(-c2ccc(/N=N/c3c(S(=O)(=O)O)cc4cc(S(=O)(=O)O)cc(N)c4c3O)c(C)c2)ccc1/N=N/c1c(S(=O)(=O)O)cc2cc(S(=O)(=O)O)cc(N)c2c1O [Trypan Blue] | 16014 | 34556 | 607 |  | < 100 | clearly give a detectable signal | 1-3 fold | reduced it somewhat at higher concentrations; also recorded: no enhancing effect | about 3 fold | 2-3 fold |  |  |  |  | 
O=S(=O)([O-])c1ccc(N=Nc2c(O)ccc3ccccc23)c2ccccc12.[Na+] [Acid Red 88] | 16986 | 14964 | 505 |  |  |  | 7-10 fold | completely abolished the response at the lowest concentration |  | 6-7 fold | 6-7 fold | did not reduce the overall basal fluorescence | reversed it to a fluorescence decrease | about 7 fold | reduces overall basal fluorescence
